Counter-ions that a name gives are not always drawn. Like-named read-outs stand apart in the source and are kept apart here.
Columns and labels:
[1] = tested on: pseudotyped VSV expressing EBOV glycoprotein; assay: microbe, parasite or virus in culture; type: cell-based, Ebola virus (EBOV); details: read-out: EC50 (uM) Pseudotype Assays EBOV
[2] = tested on: pseudotyped VSV expressing BDBV glycoprotein; assay: microbe, parasite or virus in culture; type: cell-based, Bundibugyo virus (BDBV); details: Vesicular stomatitis virus, Vero, 24 h, read-out: EC50 (uM) Pseudotype Assays BDBV
[3] = tested on: pseudotyped VSV expressing SUDV glycoprotein; assay: microbe, parasite or virus in culture; type: cell-based, Sudan virus (SUDV); details: read-out: EC50 (uM) Pseudotype Assays SUDV
[4] = tested on: pseudotyped VSV expressing MARV glycoprotein; assay: microbe, parasite or virus in culture; type: cell-based, Marburg virus (MARV); details: Vesicular stomatitis virus, Vero, 24 h, read-out: EC50 (uM) Pseudotype Assays MARV
[5] = 1 h, pH 7.4
[6] = 1 h, pH 7.4; remark: listed apart in the source
[7] = 1 h, pH 7.4; remark: listed apart in the source
[8] = 1 h, pH 7.4; remark: listed apart in the source
in vitro = details: African green monkey
WT EBOV-Mayinga = assay: microbe, parasite or virus in culture; type: cell-based, Ebola virus (EBOV); details: Zaire ebolavirus
[9] = Vesicular stomatitis virus, Vero, 24 h

| Structure (SMILES) | EC50 ([1]; Zaire ebolavirus, Vero, 24 h) | EC50 [2] | EC50 [3, 9] | EC50 [4] | CC50 (in vitro) | other results |
| --- | --- | --- | --- | --- | --- | --- |
| CC12CC3CC(C(=S)N4CC[C@H](N)C(C)(C)C4)(C1)CC(c1ccccc1)(C3)C2 (mixture of isomers) [Example C1] | 0.06 µM | 0.085 µM | 0.035 µM | – | – | – |
| CC12CC3CC(C(=S)N[C@H]4CC[C@H](N)CC4)(C1)CC(c1ccccc1)(C3)C2 (mixture of isomers) [Example C2] | 0.06 µM | 0.085 µM | 0.07 µM | – | – | – |
| CC12CC3CC(C(=S)N[C@H]4CN5CCC4CC5)(C1)CC(c1ccccc1)(C3)C2 (mixture of isomers) [Example C3] | 0.17 µM | 0.24 µM | 0.1 µM | – | – | – |
| N[C@H]1CC[C@H](NC(=O)C23CC4CC(CCl)(C2)CC(c2ccccc2)(C4)C3)CC1 (mixture of isomers) [Example E1, rac-trans-N-(4-aminocyclohexyl)-3-(chloromethyl)-5-phenyladamantane-1-carboxamide hydrochloride] | 0.034 µM | 0.12 µM | 0.56 µM | > 1 µM | 13.8 µM | Percent parent compound remaining at 60 minutes in liver microsomes, Human [5]: 89%; Percent parent compound remaining at 60 minutes in liver microsomes, Mouse [6]: 69%; Percent parent compound remaining at 60 minutes in liver microsomes, Monkey [7]: 72%; Percent parent compound remaining at 60 minutes in liver microsomes, Guinea Pig [8]: 100% |
| CC1(C)CN(C(=O)C23CC4CC(CCl)(C2)CC(c2ccccc2)(C4)C3)CC[C@@H]1N (mixture of isomers) [Example E2, rac-((S)-4-amino-3,3-dimethylpiperidin-1-yl)(3-(chloromethyl)-5-phenyladamantan-1-yl)methanone] | 0.057 µM | 0.35 µM | 0.165 µM | > 1 µM | 36.9 µM | – |
| N[C@H]1CC[C@H](NC(=O)C23CC4CC(Br)(C2)CC(c2ccccc2)(C4)C3)CC1 (mixture of isomers) [Example E3, rac-trans-N-(4-aminocyclohexyl)-3-bromo-5-phenyladamantane-1-carboxamide] | 0.061 µM | 0.19 µM | 0.34 µM | – | – | Percent parent compound remaining at 60 minutes in liver microsomes, Human [5]: 97.5%; Percent parent compound remaining at 60 minutes in liver microsomes, Monkey [7]: 91%; Percent parent compound remaining at 60 minutes in liver microsomes, Guinea Pig [8]: 96% |
| CSCC12CC3CC(C(=O)N[C@H]4CC[C@H](N)CC4)(C1)CC(c1ccccc1)(C3)C2 (mixture of isomers) [Example E6, rac-trans-N-(4-aminocyclohexyl)-3-((methylthio)methyl)-5-phenyladamantane-1-carboxamide] | 0.05 µM | 0.6 µM | 0.75 µM | > 1 µM | 34.6 µM | – |
| N[C@H]1CC[C@H](NC(=O)C23CC4CC(CSc5ccccc5)(C2)CC(c2ccccc2)(C4)C3)CC1 (mixture of isomers) [Example E7, rac-trans-N-(4-aminocyclohexyl)-3-phenyl-5-((phenylthio)methyl)adamantane-1-carboxamide] | 0.056 µM | 1.21 µM | > 1 µM | > 1 µM | 4.75 µM | – |
| CC1(C)CN(C(=O)C23CC4CC(CSc5ccccc5)(C2)CC(c2ccccc2)(C4)C3)CC[C@@H]1N (mixture of isomers) [Example E8, rac-((S)-4-amino-3,3-dimethylpiperidin-1-yl)(3-phenyl-5-((phenylthio)methyl)adamantan-1-yl)methanone] | 0.145 µM | > 1 µM | > 1 µM | > 1 µM | – | – |
| CC1(C)CN(C(=S)[C@@]23C[C@H]4C[C@@](C)(C2)C[C@](c2ccccc2)(C4)C3)CC[C@@H]1N [Example A1, ((S)-4-amino-3,3-dimethylpiperidin-1-yl)((1 S,3R,5R,7S)-3-methyl-5-phenyladamantan-1-yl)methanethione] | 0.061 µM | 0.11 µM | 0.043 µM | > 1 µM | 3.8 µM | Percent parent compound remaining at 60 minutes in liver microsomes, Human [5]: 72%; Percent parent compound remaining at 60 minutes in liver microsomes, Monkey [7]: 19%; Percent parent compound remaining at 60 minutes in liver microsomes, Guinea Pig [8]: 32% |
| C[C@]12CC3CC(C(=S)N[C@H]4CN5CCC4CC5)(C1)C[C@@](c1ccccc1)(C3)C2 [Example A3] | 0.067 µM | 0.29 µM | 0.08 µM | > 1 µM | 1.77 µM | – |
| C[C@]12CC3CC(C(=S)N4CCC(N)CC4)(C1)C[C@@](c1ccccc1)(C3)C2 [Example A4] | 0.085 µM | 0.06 µM | 0.04 µM | – | 4.09 µM | – |
| C[C@]12CC3CC(C(=S)N[C@H]4CC[C@@H](N)CC4)(C1)C[C@@](c1ccccc1)(C3)C2 [Example A5] | 0.12 µM | 0.19 µM | 0.125 µM | – | – | – |
| C[C@]12CC3CC(C(=S)NC4CCNCC4)(C1)C[C@@](c1ccccc1)(C3)C2 [Example A6] | 0.064 µM | 0.085 µM | 0.08 µM | – | 4.72 µM | – |
| C[C@]12CC3CC(C(=S)N[C@H]4CC[C@H](CN)CC4)(C1)C[C@@](c1ccccc1)(C3)C2 [Example A7] | 0.075 µM | 0.09 µM | 0.095 µM | – | 2.86 µM | – |
| CC1(C)CN(C(=S)C23CC4C[C@](C)(C2)C[C@@](c2ccccc2)(C4)C3)CC[C@@H]1N [Example B1] | 0.74 µM | 0.4 µM | 0.26 µM | – | – | – |
| C[C@@]12CC3CC(C(=S)N[C@H]4CC[C@H](N)CC4)(C1)C[C@](c1ccccc1)(C3)C2 [Example B2] | 0.09 µM | 0.16 µM | 0.26 µM | – | 3.72 µM | – |
| C[C@@]12CC3CC(C(=S)N[C@H]4CN5CCC4CC5)(C1)C[C@](c1ccccc1)(C3)C2 [Example B3] | 0.66 µM | 0.31 µM | 0.36 µM | > 1 µM | – | – |
| N[C@H]1CC[C@H](NC(=S)C2C3CC4CC2CC(c2ccccc2)(C4)C3)CC1 (stereo partly drawn) [Example D1, trans-N-(4-aminocyclohexyl)-5-phenyladamantane-2-carbothioamide] | 0.21 µM | 0.3 µM | 0.29 µM | – | – | – |
| CCCC1C2CC3(C(=O)N[C@H]4CC[C@H](N)CC4)CC1CC(c1ccccc1)(C2)C3 (stereo partly drawn) [Example F3] | 0.005 µM | 0.08 µM | 0.39 µM | 1.6 µM | 4.65 µM | EC50 (WT EBOV-Mayinga; read-out: WT EBOV-Mayinga EC50 (uM)): ~0.008 µM; EC90 (WT EBOV-Mayinga; read-out: WT EBOV-Mayinga EC90 (uM)): ~0.01 µM; Percent parent compound remaining at 60 minutes in liver microsomes, Human [5]: 91%; Percent parent compound remaining at 60 minutes in liver microsomes, Mouse [6]: 26%; Percent parent compound remaining at 60 minutes in liver microsomes, Monkey [7]: 100%; Percent parent compound remaining at 60 minutes in liver microsomes, Guinea Pig [8]: 48% |
| CC(C)CC1C2CC3(C(=O)N[C@H]4CC[C@H](N)CC4)CC1CC(c1ccccc1)(C2)C3 (stereo partly drawn) [Example F4] | 0.016 µM | 0.3 µM | 0.86 µM | 1.38 µM | 5.8 µM | – |
| CCC1C2CC3(C(=O)N4CC[C@H](N)C(C)(C)C4)CC1CC(c1ccccc1)(C2)C3 (stereo partly drawn) [Example F5] | 0.046 µM | – | 0.1 µM | – | 12.3 µM | – |
| CC1(O)C2CC3(C(=O)N[C@H]4CC[C@H](N)CC4)CC1CC(c1ccccc1)(C2)C3 (stereo partly drawn) [Example H1, trans-N-(4-aminocyclohexyl)-6-hydroxy-6-methyl-3-phenyladamantane-1-carboxamide] | > 1 µM | – | > 1 µM | – | – | – |
| CC1(O)C2CC3(C(=O)N[C@H]4CC[C@H](N)CC4)CC1CC(c1ccccc1)(C2)C3 (stereo partly drawn) [Example H2, trans-N-(4-aminocyclohexyl)-6-hydroxy-6-methyl-3-phenyladamantane-1-carboxamide] | – | – | – | – | – | EC50 [1]: > 1 µM; EC50 [3]: > 1 µM |
| CCC1(Cl)C2CC3(C(=O)N4CC[C@H](N)C(C)(C)C4)CC1CC(c1ccccc1)(C2)C3 (stereo partly drawn) [Example H3, ((S)-4-amino-3,3-dimethylpiperidin-1-yl)(6-chloro-6-ethyl-3-phenyladamantan-1-yl)methanone] | 0.063 µM | – | 0.17 µM | – | 14.7 µM | – |
| N[C@H]1CC[C@H](NC(=O)C23CC4CC(c5ccccc5)(CC(C2)C4CCF)C3)CC1 (stereo partly drawn) [Example H4, trans-N-(4-aminocyclohexyl)-6-(2-fluoroethyl)-3-phenyladamantane-1-carboxamide] | 0.014 µM | – | 0.16 µM | – | 25.1 µM | Percent parent compound remaining at 60 minutes in liver microsomes, Human [5]: 81%; Percent parent compound remaining at 60 minutes in liver microsomes, Mouse [6]: 39%; Percent parent compound remaining at 60 minutes in liver microsomes, Guinea Pig [8]: 80.5% |
| N[C@H]1CC[C@H](NC(=O)C23CC4CC(c5ccccc5)(CC(C2)C4CCCl)C3)CC1 (stereo partly drawn) [Example H5, trans-N-(4-aminocyclohexyl)-6-(2-chloroethyl)-3-phenyladamantane-1-carboxamide] | 0.01 µM | – | 0.27 µM | – | 7.27 µM | Percent parent compound remaining at 60 minutes in liver microsomes, Human [5]: 85%; Percent parent compound remaining at 60 minutes in liver microsomes, Mouse [6]: 35%; Percent parent compound remaining at 60 minutes in liver microsomes, Guinea Pig [8]: 80.5% |
| N[C@H]1CC[C@H](NC(=O)C23CC4CC(c5ccccc5)(CC(C2)C4CC(F)F)C3)CC1 (stereo partly drawn) [Example H6, trans-N-(4-aminocyclohexyl)-6-(2,2-difluoroethyl)-3-phenyladamantane-1-carboxamide] | 0.02 µM | – | 0.18 µM | – | 22.2 µM | – |
